This is an account of results in patent US12187816B2, “Macrocyclic compounds and methods of use thereof” (Genentech, Inc., priority 2020, dated 2025).

What is called DC50 is the concentration giving 50% degradation. Read a low DC50 as degradation at low concentration.

Starred links: 1 amine or outer side, 2 acyl side, 3 side chain; linkers in the order of their positions; H or OH if unused. Positions of bridges follow the written chain, without caps; N, C: chain ends. Non-standard residues stand in square brackets, D forms with d. Residues, ends and D or L forms follow the SMILES beside them. Groups on a side chain read outwards from the residue. *: point of attachment. β3hPhg(4-(4-MeThiazol-5-yl)) = Cc1ncsc1-c1ccc([C@@H](CC(=O)[*:2])N[*:1])cc1; JQ1acid = Cc1sc2c(c1C)C(c1ccc(Cl)cc1)=N[C@@H](CC(=O)*)c1nnc(C)n1-2; dPhg(4-(4-Me-thiazol-5-yl)) = Cc1ncsc1-c1ccc([C@@H](N)C(=O)O)cc1; Phg(4-(4-Me-thiazol-5-yl)) = Cc1ncsc1-c1ccc([C@H](N)C(=O)O)cc1; X2 = COc1ccc2c(c1)C(c1ccc(Cl)cc1)=N[C@@H](CC(=O)*)c1nnc(C)n1-2; X12 = Cc1sc2c(c1C)C(c1ccc(Cl)cc1)=N[C@H](CC(=O)*)c1nnc(C)n1-2; X13 = Cc1ncsc1-c1ccc(C[C@@H](N[*:1])C(=O)[*:2])cc1; X9 = O=C(C[C@@H](Cc1ccc(-c2ccccc2)cc1)N[*:1])[*:2]; X6 = Cc1ncsc1-c1ccc([C@H](CC(=O)[*:2])N[*:1])cc1; dBip = N[C@H](Cc1ccc(-c2ccccc2)cc1)C(=O)O; dLys(N3) = [N-]=[N+]=NCCCC[C@@H](N)C(=O)O; NHCH2CH2SCH2CO = O=C(CSCCN[*:1])[*:2]; Ile(3-Me) = CCC(C)(C)[C@H](N)C(=O)O; Hyp = O=C(O)[C@@H]1C[C@@H](O)CN1; Tle = CC(C)(C)[C@H](N)C(=O)O; X8 = CN(CCOCC(=O)[*:2])[*:1]; AEEEA = NCCOCCOCCOCC(=O)O; dDap = NC[C@@H](N)C(=O)O; Ahp = NCCCCCCC(=O)O; Ahx = NCCCCCC(=O)O; AEA = NCCOCC(=O)O; GABA = NCCCC(=O)O; βAla = NCCC(=O)O

This experiment addresses T1, BRD4 (Homo sapiens, UniProt O60885).
T1 construct: Mean 488 intensity of BRD4 quantitated in nuclear region; endogenous in cells; host or cells: EoL-1 eosinophilic leukemia cells
Put plainly: BRD4 degradation assay in EOL1 cells (immunofluorescence imaging). To be noted: EoL-1 eosinophilic leukemia cells, 4 hours treatment, nuclear BRD4 immunofluorescence. Type of experiment: cell-based. Put shortly:
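EoL-1 cells treated 4 h at 37 °C with 20-point 1/3 serial dilutions (0.2% DMSO) in RPMI/10% FBS, then fixed and immunostained for BRD4. Mean nuclear BRD4 intensity measured by high-content imaging, with Hoechst nuclear masking. DMSO and no-primary-antibody controls define 0 and 100%; DC50 and maximal effect from dose-response fit.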

Regarding `Cc1ncsc1-c1ccc([C@@H]2NC(=O)[C@@H]3C[C@@H](O)CN3C(=O)[C@H](C(C)(C)C)NC(=O)CSCCNC(=O)[C@@H](CNC(=O)C[C@@H]3N=C(c4ccc(Cl)cc4)c4c(sc(C)c4C)-n4c(C)nnc43)NC(=O)CNC2=O)cc1` [Compound 47] (cyclo(G[dDap](JQ1acid)[NHCH2CH2SCH2CO][Tle][Hyp][Phg(4-(4-Me-thiazol-5-yl))])), the DC50 is over 20000 nM.

`Cc1sc2c(c1C)C(c1ccc(Cl)cc1)=N[C@@H](CC(=O)NC[C@H]1NC(=O)CNC(=O)[C@@H](Cc3ccc(-c4ccccc4)cc3)NC(=O)[C@@H]3C[C@@H](O)CN3C(=O)[C@H](C(C)(C)C)n3cc(nn3)COCCNC1=O)c1nnc(C)n1-2` [Compound 48] returned a DC50 of under 50 nM.

In turn, `Cc1ncsc1-c1ccc([C@H]2NC(=O)[C@@H]3C[C@@H](O)CN3C(=O)[C@H](C(C)(C)C)NC(=O)CSC[C@H](C(N)=O)NC(=O)[C@@H](CNC(=O)COCCOCCOCCNC(=O)C[C@@H]3N=C(c4ccc(Cl)cc4)c4c(sc(C)c4C)-n4c(C)nnc43)NC(=O)CNC2=O)cc1` [Compound 49] ({CH2CO}-[Tle][Hyp][dPhg(4-(4-Me-thiazol-5-yl))]G[dDap]([AEEEA-JQ1acid])[dC]-NH2; thioether N-6) returned a DC50 of over 20000 nM.

As to `COc1ccc2c(c1)C(c1ccc(Cl)cc1)=N[C@@H](CC(=O)NC[C@H]1NC(=O)CNC(=O)[C@@H](c3ccc(-c4scnc4C)cc3)NC(=O)[C@@H]3C[C@@H](O)CN3C(=O)[C@H](C(C)(C)C)NC(=O)CSC[C@H](C(N)=O)NC1=O)c1nnc(C)n1-2` [Compound 50] ({CH2CO}-[Tle][Hyp][dPhg(4-(4-Me-thiazol-5-yl))]G[dDap](X2)[dC]-NH2; thioether N-6), the 50% degradation concentration (DC50) was under 1000 nM.

`COc1ccc2c(c1)C(c1ccc(Cl)cc1)=N[C@@H](CC(=O)NC[C@H]1NC(=O)CNC(=O)[C@H](c3ccc(-c4scnc4C)cc3)NC(=O)[C@@H]3C[C@@H](O)CN3C(=O)[C@H](C(C)(C)C)NC(=O)CSC[C@H](C(N)=O)NC1=O)c1nnc(C)n1-2` [Compound 51] ({CH2CO}-[Tle][Hyp][Phg(4-(4-Me-thiazol-5-yl))]G[dDap](X2)[dC]-NH2; thioether N-6) returned a DC50 of over 20000 nM.

`COc1ccc2c(c1)C(c1ccc(Cl)cc1)=N[C@@H](CC(=O)NC[C@H]1NC(=O)[C@@H](C(C)C)NC(=O)[C@@H](Cc3ccc(-c4ccccc4)cc3)NC(=O)[C@@H]3C[C@@H](O)CN3C(=O)[C@H](C(C)(C)C)NC(=O)COCCNC1=O)c1nnc(C)n1-2` [Compound 52] (cyclo([AEA][Tle][Hyp][dBip][dV][dDap](X2))): the 50% degradation concentration (DC50) was under 50 nM.

For `Cc1ncsc1-c1ccc([C@H]2NC(=O)[C@@H]3C[C@@H](O)CN3C(=O)[C@H](C(C)(C)C)NC(=O)CSC[C@H](C(N)=O)NC(=O)[C@@H](CNC(=O)C[C@H]3N=C(c4ccc(Cl)cc4)c4c(sc(C)c4C)-n4c(C)nnc43)NC(=O)CNC2=O)cc1` [Compound 53] ({CH2CO}-[Tle][Hyp][dPhg(4-(4-Me-thiazol-5-yl))]G[dDap](X12)[dC]-NH2; thioether N-6), the DC50 was over 20000 nM.

In the case of `Cc1ncsc1-c1ccc([C@@H]2CC(=O)NCC(=O)N[C@H](CNC(=O)C[C@@H]3N=C(c4ccc(Cl)cc4)c4c(sc(C)c4C)-n4c(C)nnc43)C(=O)NCCOCC(=O)N[C@@H](C(C)(C)C)C(=O)N3C[C@H](O)C[C@H]3C(=O)N2)cc1` [Compound 54] (cyclo([AEA][Tle][Hyp][X6]G[dDap](JQ1acid))), the DC50 is under 50 nM.

In turn, `Cc1ncsc1-c1ccc([C@H]2CC(=O)NCC(=O)N[C@H](CNC(=O)C[C@@H]3N=C(c4ccc(Cl)cc4)c4c(sc(C)c4C)-n4c(C)nnc43)C(=O)NCCOCC(=O)N[C@@H](C(C)(C)C)C(=O)N3C[C@H](O)C[C@H]3C(=O)N2)cc1` [Compound 55] (cyclo([AEA][Tle][Hyp][β3hPhg(4-(4-MeThiazol-5-yl))]G[dDap](JQ1acid))) displayed a DC50 of under 1000 nM.

`Cc1sc2c(c1C)C(c1ccc(Cl)cc1)=N[C@@H](CC(=O)NC[C@H]1NC(=O)[C@@H](C)NC(=O)[C@@H](Cc3ccc(-c4ccccc4)cc3)NC(=O)[C@@H]3C[C@@H](O)CN3C(=O)[C@H](C(C)(C)C)n3cc(nn3)COCCNC1=O)c1nnc(C)n1-2` [Compound 56] had a DC50 of under 50 nM.

Consider `CCC(C)(C)[C@@H]1NC(=O)COCCNC(=O)[C@@H](CNC(=O)C[C@@H]2N=C(c3ccc(Cl)cc3)c3c(sc(C)c3C)-n3c(C)nnc32)NC(=O)[C@@H](C)NC(=O)[C@@H](Cc2ccc(-c3ccccc3)cc2)NC(=O)[C@@H]2C[C@@H](O)CN2C1=O` [Compound 57] (cyclo([AEA][Ile(3-Me)][Hyp][dBip][dA][dDap](JQ1acid))), for which the DC50 was under 50 nM.

Turning to `Cc1sc2c(c1C)C(c1ccc(Cl)cc1)=N[C@@H](CC(=O)NC[C@H]1NC(=O)[C@@H](C)NC(=O)[C@@H](Cc3ccc(-c4ccccc4)cc3)NC(=O)[C@@H]3C[C@@H](O)CN3C(=O)[C@H](C(C)(C)C)NC(=O)COCCNC1=O)c1nnc(C)n1-2` [Compound 58] (cyclo([AEA][Tle][Hyp][dBip][dA][dDap](JQ1acid))), the DC50 is under 50 nM.

On to `Cc1sc2c(c1C)C(c1ccc(Cl)cc1)=N[C@@H](CC(=O)NC[C@H]1NC(=O)[C@@H](C)NC(=O)[C@@H](Cc3ccc(-c4ccccc4)cc3)NC(=O)[C@@H]3C[C@@H](O)CN3C(=O)[C@H](C(C)(C)C)NC(=O)CCCNC1=O)c1nnc(C)n1-2` [Compound 59] (cyclo([GABA][Tle][Hyp][dBip][dA][dDap](JQ1acid))), for which the half-maximal degradation concentration (DC50) was under 1000 nM.

In turn, `Cc1sc2c(c1C)C(c1ccc(Cl)cc1)=N[C@@H](CC(=O)NC[C@H]1NC(=O)[C@@H](C)NC(=O)[C@@H](Cc3ccc(-c4ccccc4)cc3)NC(=O)[C@@H]3C[C@@H](O)CN3C(=O)[C@H](C(C)(C)C)NC(=O)CCCCCNC1=O)c1nnc(C)n1-2` [Compound 60] (cyclo([Ahx][Tle][Hyp][dBip][dA][dDap](JQ1acid))) showed a DC50 of under 50 nM.

On to `Cc1sc2c(c1C)C(c1ccc(Cl)cc1)=N[C@@H](CC(=O)NC[C@H]1NC(=O)[C@@H](C)NC(=O)[C@@H](Cc3ccc(-c4ccccc4)cc3)NC(=O)[C@@H]3C[C@@H](O)CN3C(=O)[C@H](C(C)(C)C)NC(=O)CCCCCCNC1=O)c1nnc(C)n1-2` [Compound 61] (cyclo([Ahp][Tle][Hyp][dBip][dA][dDap](JQ1acid))), for which the DC50 was under 50 nM.

`Cc1sc2c(c1C)C(c1ccc(Cl)cc1)=N[C@@H](CC(=O)NC[C@H]1NC(=O)CCNC(=O)[C@@H](Cc3ccc(-c4ccccc4)cc3)NC(=O)[C@@H]3C[C@@H](O)CN3C(=O)[C@H](C(C)(C)C)NC(=O)COCCNC1=O)c1nnc(C)n1-2` [Compound 62] (cyclo([AEA][Tle][Hyp][dBip][βAla][dDap](JQ1acid))) registered a DC50 of under 1000 nM.

Compound `Cc1sc2c(c1C)C(c1ccc(Cl)cc1)=N[C@@H](CC(=O)NC[C@H]1NC(=O)[C@@H](C)NC(=O)[C@@H](Cc3ccc(-c4ccccc4)cc3)NC(=O)[C@@H]3C[C@@H](O)CN3C(=O)[C@H](C(C)(C)C)NC(=O)COCCN(C)C1=O)c1nnc(C)n1-2` [Compound 63] (cyclo([Hyp][dBip][dA][dDap](JQ1acid)[X8][Tle])) returned a DC50 of under 50 nM.

As to `Cc1sc2c(c1C)C(c1ccc(Cl)cc1)=N[C@@H](CC(=O)NC[C@H]1NC(=O)CNC(=O)C[C@@H](Cc3ccc(-c4ccccc4)cc3)NC(=O)[C@@H]3C[C@@H](O)CN3C(=O)[C@H](C(C)(C)C)NC(=O)COCCNC1=O)c1nnc(C)n1-2` [Compound 64] (cyclo([AEA][Tle][Hyp][X9]G[dDap](JQ1acid))), the DC50 is over 20000 nM.

The compound `Cc1sc2c(c1C)C(c1ccc(Cl)cc1)=N[C@@H](CC(=O)NC[C@H]1NC(=O)[C@@H](C)NC(=O)C[C@@H](Cc3ccc(-c4ccccc4)cc3)NC(=O)[C@@H]3C[C@@H](O)CN3C(=O)[C@H](C(C)(C)C)NC(=O)COCCNC1=O)c1nnc(C)n1-2` [Compound 65] (cyclo([AEA][Tle][Hyp][X9][dA][dDap](JQ1acid))) displayed a DC50 of over 20000 nM.

As for `Cc1sc2c(c1C)C(c1ccc(Cl)cc1)=N[C@@H](CC(=O)NC[C@H]1NC(=O)[C@@H](CCC(N)=O)NC(=O)[C@@H](Cc3ccc(-c4ccccc4)cc3)NC(=O)[C@@H]3C[C@@H](O)CN3C(=O)[C@H](C(C)(C)C)NC(=O)COCCNC1=O)c1nnc(C)n1-2` [Compound 66] (cyclo([AEA][Tle][Hyp][dBip][dQ][dDap](JQ1acid))), the DC50 is under 1000 nM.

As for `Cc1sc2c(c1C)C(c1ccc(Cl)cc1)=N[C@@H](CC(=O)NC[C@H]1CCCNC(=O)[C@@H](Cc3ccc(-c4ccccc4)cc3)NC(=O)[C@@H]3C[C@@H](O)CN3C(=O)[C@H](C(C)(C)C)NC(=O)COCCNC1=O)c1nnc(C)n1-2` [Compound 67], the DC50 is under 50 nM.

Consider `Cc1ncsc1-c1ccc([C@H]2NC(=O)[C@@H]3C[C@@H](O)CN3C(=O)[C@H](C(C)(C)C)NC(=O)CSC[C@H](C(N)=O)NC(=O)[C@@H](NC(=O)C[C@@H]3N=C(c4ccc(Cl)cc4)c4c(sc(C)c4C)-n4c(C)nnc43)NC(=O)CNC2=O)cc1` [Compound 68], for which the DC50 was over 20000 nM.

The compound `Cc1ncsc1-c1ccc([C@H]2NC(=O)[C@@H]3C[C@@H](O)CN3C(=O)[C@H](C(C)(C)C)NC(=O)CSC[C@H](C(N)=O)NC(=O)[C@H](NC(=O)C[C@@H]3N=C(c4ccc(Cl)cc4)c4c(sc(C)c4C)-n4c(C)nnc43)NC(=O)CNC2=O)cc1` [Compound 69] returned a DC50 of over 20000 nM.

For the compound `Cc1ncsc1-c1ccc(C[C@H]2NC(=O)[C@@H]3C[C@@H](O)CN3C(=O)[C@H](C(C)(C)C)NC(=O)COCCNC(=O)[C@@H](CNC(=O)C[C@@H]3N=C(c4ccc(Cl)cc4)c4c(sc(C)c4C)-n4c(C)nnc43)NC(=O)[C@@H](C)NC2=O)cc1` [Compound 70] (cyclo([AEA][Tle][Hyp][X13][dA][dDap](JQ1acid))), the DC50 was under 50 nM.

Compound `Cc1sc2c(c1C)C(c1ccc(Cl)cc1)=N[C@@H](CC(=O)NC[C@H]1NC(=O)[C@@H](CCCCN=[N+]=[N-])NC(=O)[C@@H](Cc3ccc(-c4ccccc4)cc3)NC(=O)[C@@H]3C[C@@H](O)CN3C(=O)[C@H](C(C)(C)C)NC(=O)COCCNC1=O)c1nnc(C)n1-2` [Compound 71] (cyclo([AEA][Tle][Hyp][dBip][dLys(N3)][dDap](JQ1acid))) came in with a DC50 of under 1000 nM.
